Assay results: patent US11576987B2, “Compositions and methods of treating melanoma” (UNIVERSITY OF IOWA RESEARCH FOUNDATION, priority 2016, dated 2023)
Counter-ions that a name gives are not always drawn.

What was measured:
[1] = tested on: MCR1 expression; assay: Pharmacological enhancement of MCR1 expression in human melanoma cells by drug incubation; assay type: cell-based; settings: human melanoma cells, incubation with drug
From the text: Melanoma if detected early can be cured by surgery, but metastatic melanoma is lethal. New therapies (e.g., immunotherapy; BRAF inhibition, BRAFi) and combinations extend life, but low response rates, acquired drug resistance, and serious side effects are major challenges to improving outcomes for disseminated disease (5 y survival 17%). Peptide-based radionuclide therapy targeted to the melanocortin-receptor type 1 (MCR1-RT) has long been considered a promising alternative; and MCR1-RT has achieved complete responses in mouse models (B16). However, MCR1 expression is heterogeneous/low in human melanoma, and as a result, no previous MCR1-RT study has employed successfully human melanoma cell xenografts. […] This introduces innovative Pb-specific chelator combined with a “click-cyclized” peptide (PSC-C-MCR1) to improve tumor:kidney ratio of radionuclide uptake 7-fold. An effective therapy for metastatic melanoma is developed that combines MCR1-RT with pharmacological agents (PBA; BRAFi/MEKi; HDACi) that enhance MCR1 expression.
Melanoma is the fastest growing cancer incidence in the United States. Surgery combined with radiation can be curative at early stages. However, metastatic melanoma is almost uniformly fatal (5-yr survival 17%). Recent breakthrough targeted MAPKi therapies (e.g., BRAFi) and immunotherapies (e.g., PD-1 inhibitors) have improved outcomes, but low response rates, acquired drug resistance, and adverse side effects limit quality of life for metastatic melanoma patients. For example, approval of immune-checkpoint inhibitor ipilimumab was based on an improvement in overall survival of only 3.7 months (overall response <15%). Combination immunotherapies have improved response (up to 61%), but grade 3/4 adverse events (up to 55%) often lead to therapy discontinuation (up to 36%). For targeted therapies, BRAF inhibitor vemurafenib was approved based on overall survival at 6 months of 84% vs 64% in the control arm (dacarbazine). Combining BRAFi with MEK inhibitors (MEKi) has led to modest improvements, yet recurrence is virtually inevitable. The mechanisms of acquired drug resistance are complex, and include altered/alternative oncogenic pathways; tumor heterogeneity; and enhanced DNA repair. Melanocortin-receptor type 1 targeted radionuclide therapy (MCR1-RT) has long been considered a promising alternative treatment for melanoma; and MCR1-targeted α-particle therapy (^212Pb) has achieved complete responses in mice bearing mouse (B16) tumors that highly express MCR1. However, these studies have been confined primarily to mouse melanoma (B16) cells because MCR1 expression is heterogeneous/low in human melanoma.
Combination therapies for metastatic melanoma are emerging as common practice (e.g., BRAFi plus MEK; and combination immunotherapies), but melanoma almost invariably develops resistance. MCR1-RT has long been considered a promising alternative, but previous therapy studies have been limited to the use of B16 mouse melanoma cells that highly express the MCR1 protein, because native MCR1 expression in human melanoma is heterogeneous/low.

[2] = tested on: BRAFi-resistant A375VR cells; assay: Clonogenic survival of BRAFi-resistant melanoma cells; assay type: cell-based, human; settings: in combination with 5 μM vemurafenib, up to 6 days, PBA as low as 500 μM
Experimental: FIGS. 13A-13B. PBA treatment promotes cell death of BRAFi-resistant metastatic melanoma and upregulates MCR1 expression in a time dpe. (A) BRAFi-resistant A375VR cells were incubated with 5 μM vemurafenib in combination with ER-stress-relieving drug 4-PBA for up to 6 days. […] (B) Flow cytometry analysis of MCR1 expression in A2058 and A375 malignant melanoma cells. Cells were treated with 3 mmole 4-PBA for 4 h and 24 h (n=3). The treated and untreated (control) cells were stained with anti-MC1R-phycoerythrin (PE) monoclonal antibody conjugate. Fluorescence intensity was corrected by auto-fluorescence of cells without staining and data were expressed as relative fluorescence intensity (IF) (vs. control)±SD.
Accumulation of misfolded-proteins causes upregulation and detachment of ER resident protein GRP78 from ER sensors proteins—activating the unfolded protein response (UPR) and downstream signaling pathways (including autophagy). […] Thus, the potential for a pharmacological treatment that would sensitize BRAFi-resistant cells to BRAFi by reducing ER-stress was considered. BRAFi-resistant A375VR melanoma cells were incubated with BRAFi vemurafenib alone and in combination with ER-stress relieving PBA.

[3] = cited from earlier work
[4] = tested on: metastatic melanoma; settings: cited from earlier work

In the case of O=C(O)CCCc1ccccc1 [PBA, 4-phenylbutyric acid, sodium salt], the “enhancement of MCR1 expression” value [1] is given as “up to 8 fold”, the clonogenic cell death [2] is given as ~90% and the “solubility in acetone and diethyl ether” value [3] is given as “practically insoluble”. The solubility in methanol [3] was “freely soluble”, the solubility in water [3] was “soluble in water” and the “tolerated dose in patients” value [4] was “up to 27 g/day”.
